Patent US20230020469A1, “USE OF CO-CRYSTALS OF TRAMADOL AND CELECOXIB FOR TREATING PAIN WHILE REDUCING THE ABUSE LIABILITY OF TRAMADOL” (ESTEVE PHARMACEUTICALS, S.A., priority 2019, published 2023)

Assay: Single dose, open-label, 4-period crossover pharmacokinetic study; plasma tramadol and O-desmethyltramadol (M1) by HPLC-MS/MS; AQ=Cmax/Tmax
Details: for AQ for tramadol, comparison between treatments (in words): 4-way cross-over study, co-crystal vs Ultram® and vs Ultram® and Celebrex® taken concomitantly, Ultram® alone vs in combination; for O-desmethyltramadol AQ / Tramadol AQ: n 33, 2 × 100 mg co-crystal E-58425 tablets oral (Treatment 1), healthy subjects
Experimental: The study was a single center, randomized, single dose, open-label, 4-period, 4-sequence, crossover design in healthy male and female subjects.
The products were administered to 36 subjects. The wash-out between the periods for each subject was of 7 calendar days.
Separate blood samples were obtained for analysis of tramadol/M1 metabolite and for analysis of celecoxib (data not shown).
As soon as possible following blood collection, samples were centrifuged at a temperature of 4° C. nominal and at approximately 1500 g for 10 minutes. The plasma obtained was separated into duplicate polypropylene culture tubes. […] The samples were frozen in an upright position and retained in the clinic's freezers at a temperature of −20° C. nominal until sent on dry ice to the bioanalytical facility for assay.
The experimental human plasma samples were assayed for tramadol and M1 metabolite (0-desmethyltramadol) and also for celecoxib (data not shown) using two different validated bioanalytical methods by HPLC with MS/MS detection.
Sample pre-treatment involved the liquid-liquid extraction of tramadol and O-desmethyltramadol from 0.100 mL of human plasma; tramadol-D6 and O-desmethyltramadol-D6 were used as the internal standards (IS1 and IS2 respectively). The compounds were identified and quantified using Hilic HPLC with MS/MS detection over a theoretical concentration range of 2.00 ng/mL to 800.00 ng/mL for tramadol and 0.500 ng/mL to 200.00 ng/mL for O-desmethyltramadol. The concentrations were calculated using peak area ratios and the linearity of the calibration curve was determined using a weighted (1/x^2) linear (y=mx+b) least squares regression analysis for tramadol and for O-desmethyltramadol.
Pharmacokinetic parameters were estimated from the individual plasma concentration—time profile for each subject. The main absorption and disposition parameters were obtained using a non-compartmental approach with a log-linear terminal phase assumption. Maximum observed plasma concentration (Cmax) and the time of maximum observed plasma concentration (Tmax) were obtained directly from the experimental data. The trapezoidal rule was used to estimate the area under the curve (AUC; data not shown) and the terminal phase was estimated by maximizing the coefficient of determination estimated from the log-linear regression model (T1/2; data not shown). The abuse quotient was obtained using the following expression AQ=Cmax/Tmax.

For `COc1cccc(C2(O)CCCCC2CN(C)C)c1.Cc1ccc(-c2cc(C(F)(F)F)nn2-c2ccc(S(N)(=O)=O)cc2)cc1.Cl` (racemic) [Co-crystal E-58425, co-crystal of (rac)-tramadol.HCl and celecoxib], the “AQ for tramadol, comparison between treatments (in words)” value was “lower”, the “AQ for tramadol, comparison between treatments (in words)” value (listed as co-crystal E-58425) was “better (lower)” and the “O-desmethyltramadol AQ” value (Mean) was 13.5 ng/(mL · h). The “Tramadol AQ” value (Mean) was 70.5 ng/(mL · h), the “O-desmethyltramadol AQ” value (Median) was 13.3 ng/(mL · h) and the “Tramadol AQ” value (Median) was 70.7 ng/(mL · h).
